Measurements published in the supplement of paper PMC10307832.

Experiments:
Assay in all cases: relative viability (nuclei count vs DMSO), 5 days (fraction); higher = more cells survive
[1] = compound: CCc1cnn2c(NCc3ccc[n+]([O-])c3)cc(N3CCCC[C@H]3CCO)nc12 [Dinaciclib] + COc1cc2c(Oc3ccc(NC(=O)C4(C(=O)Nc5ccc(F)cc5)CC4)cc3F)ccnc2cc1OCCCN1CCOCC1 [Foretinib] (partner 0.25 µM)
Outline: (§1)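 Relative viability is defined as nuclei in treated wells over nuclei in vehicle wells. Duplicate plates were run and medians reported. Lung cancer cell lines in 1536-well plates were dosed by pin tool one day after seeding, with one drug or with a fixed anchor-drug dose plus five library-drug doses (not always all listed) in √10 steps, and nuclei were counted after 5 days.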

[2] = compound: CCc1cnn2c(NCc3ccc[n+]([O-])c3)cc(N3CCCC[C@H]3CCO)nc12 [Dinaciclib] + C[C@]1(O)C[C@@H](c2nc(-c3ccc4ccc(-c5ccccc5)nc4c3)c3c(N)nccn32)C1 [Linsitinib] (partner 1 µM)
Outline: as §1

[3] = compound: CCc1cnn2c(NCc3ccc[n+]([O-])c3)cc(N3CCCC[C@H]3CCO)nc12 [Dinaciclib] + N=C(N)NC(=N)NCCc1ccccc1 [Phenformin] (partner 250 µM)
Outline: as §1

[4] = compound: CCc1cnn2c(NCc3ccc[n+]([O-])c3)cc(N3CCCC[C@H]3CCO)nc12 [Dinaciclib] + C[C@@H](Oc1cc(-c2cnn(C3CCNCC3)c2)cnc1N)c1c(Cl)ccc(F)c1Cl [Crizotinib] (partner 1 µM)
Outline: as §1

[5] = compound: CCc1cnn2c(NCc3ccc[n+]([O-])c3)cc(N3CCCC[C@H]3CCO)nc12 [Dinaciclib]
Outline: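 Five library-drug doses spaced by √10 were pinned onto vehicle-anchored 1536-well plates of lung cancer cell lines that had been kept overnight at 37 °C. Cells went 5 days without medium change, then were fixed, permeabilised and Hoechst-stained together, imaged at 4× and counted by MetaXpress. Viability is the ratio of treated-well to vehicle-well nuclei, taken as a median over plates. Plates required control CV below 25% and at least one doubling.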

Row | Cell Line | relative viability ([1]; first compound 0.009487 µM) | relative viability ([1]; first compound 0.03 µM) | relative viability ([1]; first compound 0.09487 µM) | relative viability ([1]; first compound 0.3 µM) | relative viability ([2]; first compound 0.009487 µM) | relative viability ([2]; first compound 0.03 µM) | relative viability ([2]; first compound 0.09487 µM) | relative viability ([2]; first compound 0.3 µM) | relative viability ([3]; first compound 0.009487 µM) | relative viability ([3]; first compound 0.03 µM) | relative viability ([3]; first compound 0.09487 µM) | relative viability ([3]; first compound 0.3 µM) | relative viability ([4]; first compound 0.009487 µM) | relative viability ([4]; first compound 0.03 µM) | relative viability ([4]; first compound 0.09487 µM) | relative viability ([4]; first compound 0.3 µM) | relative viability ([5]; 0.009487 µM) | relative viability ([5]; 0.03 µM) | relative viability ([5]; 0.09487 µM) | relative viability ([5]; 0.3 µM)
1 | COR-L 105 | 1.17 | 0.644 | 0.247 | 0.259 | 0.55 | 0.239 | 0.245 | 0.249 | 0.384 | 0.217 | 0.208 | 0.201 | 0.923 | 0.192 | 0.171 | 0.189 | 0.599 | 0.285 | 0.264 | 0.29
2 | NCI-H2228 | 0.87 | 0.36 | 0.104 | 0.11 | 0.715 | 0.466 | 0.109 | 0.13 | 0.256 | 0.11 | 0.0988 | 0.103 | 0.526 | 0.178 | 0.135 | 0.103 | 1.21 | 0.434 | 0.123 | 0.161
3 | NCI-H838 | 0.993 | 0.487 | 0.125 | 0.101 | 0.547 | 0.137 | 0.113 | 0.112 | 0.247 | 0.117 | 0.0955 | 0.104 | 0.791 | 0.182 | 0.0924 | 0.0905 | 0.88 | 0.173 | 0.128 | 0.137
4 | EMC-BAC-2 | 1.14 | 0.319 | 0.159 | 0.148 | 0.868 | 0.235 | 0.14 | 0.161 | 0.472 | 0.199 | 0.13 | 0.166 | 0.71 | 0.187 | 0.146 | 0.15 | 0.951 | 0.413 | 0.224 | 0.197
5 | LU99A | 0.545 | 0.183 | 0.128 | 0.154 | 0.336 | 0.154 | 0.145 | 0.141 | 0.709 | 0.14 | 0.0878 | 0.132 | 0.315 | 0.131 | 0.125 | 0.122 | 0.838 | 0.199 | 0.139 | 0.133
6 | PC-3 [JPC-3] | 1.09 | 0.93 | 0.254 | 0.224 | 0.912 | 0.991 | 0.537 | 0.237 | 0.492 | 0.476 | 0.326 | 0.204 | 0.953 | 0.799 | 0.232 | 0.198 | 1.05 | 0.92 | 0.4 | 0.266
7 | NCI-H596 | 0.861 | 0.547 | 0.176 | 0.178 | 0.847 | 0.468 | 0.169 | 0.193 | 0.875 | 0.692 | 0.438 | 0.216 | 1.06 | 0.746 | 0.196 | 0.196 | 0.977 | 0.846 | 0.261 | 0.18
8 | LCLC-97TM1 | 0.705 | 0.14 | 0.132 | 0.107 | 0.168 | 0.12 | 0.126 | 0.107 | 0.391 | 0.257 | 0.153 | 0.129 | 0.346 | 0.092 | 0.0991 | 0.103 | 0.506 | 0.134 | 0.0776 | 0.0861
9 | NCI-H1993 | 0.922 | 0.584 | 0.65 | 0.544 | 0.69 | 0.586 |  | 0.518 | 0.466 | 0.581 | 0.594 | 0.565 | 0.735 | 0.766 |  | 0.642 | 0.861 | 0.631 | 0.483 | 0.485
10 | HARA | 0.583 | 0.0737 | 0.0603 | 0.0628 | 0.758 | 0.0716 | 0.0363 | 0.038 | 0.518 | 0.129 | 0.0472 | 0.0313 | 0.717 | 0.103 | 0.0536 | 0.0685 | 0.912 | 0.18 | 0.088 | 0.0759
11 | NCI-H460 | 0.803 | 0.0417 | 0.0257 | 0.0233 | 0.434 | 0.0071 | 0.0074 | 0.0155 | 0.296 | 0.0189 | 0.0192 | 0.0198 | 0.688 | 0.0158 | 0.0092 | 0.011 | 0.885 | 0.0593 | 0.0265 | 0.0308
12 | EKVX | 0.93 | 0.0805 | 0.246 | 0.0963 | 0.961 | 0.51 | 0.0946 | 0.137 | 0.239 | 0.218 | 0.162 | 0.091 | 0.749 | 0.454 | 0.103 | 0.118 | 0.996 | 0.601 | 0.184 | 0.13
13 | NCI-H1755 | 0.917 | 0.516 | 0.198 | 0.196 | 0.991 | 0.429 | 0.166 | 0.171 | 0.545 | 0.405 | 0.224 | 0.218 | 0.8 | 0.289 | 0.147 | 0.147 | 1.01 | 0.894 | 0.257 | 0.266
14 | NCI-H2087 | 0.93 | 0.118 | 0.0913 | 0.106 | 0.69 | 0.164 | 0.155 | 0.133 | 0.588 | 0.112 | 0.118 | 0.107 | 1.3 | 0.136 | 0.128 | 0.13 | 0.954 | 0.14 | 0.111 | 0.122
15 | H3255 | 0.841 | 0.76 | 0.217 | 0.2 | 1.09 | 0.493 | 0.177 | 0.186 | 0.333 | 0.305 | 0.315 | 0.28 | 0.842 | 0.194 | 0.173 | 0.197 | 0.928 | 0.56 | 0.219 | 0.196
16 | SK-MES-1 | 0.962 | 0.189 | 0.135 | 0.137 | 1.08 | 0.493 | 0.168 | 0.164 | 0.533 | 0.171 | 0.147 | 0.153 | 0.969 | 0.18 | 0.191 | 0.155 | 1.04 | 0.295 | 0.163 | 0.15
